IC50 data for 1 compound are collected here from ChEMBL document CHEMBL1131489, “Dihydropyrancarboxamides related to zanamivir: a new series of inhibitors of influenza virus sialidases. 2. Crystallographic and molecular modeling study of complexes of 4-amino-4H-pyran-6-carboxamides and sialidase from influenza virus types A and B” (J Med Chem, 1998).

The structures appear in SMILES notation.

The test has as its target Neuraminidase (Influenza A virus (A/Puerto Rico/8/1934(H1N1)), UniProt P03468).

Chain of Neuraminidase (Influenza A virus (A/Puerto Rico/8/1934(H1N1)), UniProt P03468) (P03468 whole entry): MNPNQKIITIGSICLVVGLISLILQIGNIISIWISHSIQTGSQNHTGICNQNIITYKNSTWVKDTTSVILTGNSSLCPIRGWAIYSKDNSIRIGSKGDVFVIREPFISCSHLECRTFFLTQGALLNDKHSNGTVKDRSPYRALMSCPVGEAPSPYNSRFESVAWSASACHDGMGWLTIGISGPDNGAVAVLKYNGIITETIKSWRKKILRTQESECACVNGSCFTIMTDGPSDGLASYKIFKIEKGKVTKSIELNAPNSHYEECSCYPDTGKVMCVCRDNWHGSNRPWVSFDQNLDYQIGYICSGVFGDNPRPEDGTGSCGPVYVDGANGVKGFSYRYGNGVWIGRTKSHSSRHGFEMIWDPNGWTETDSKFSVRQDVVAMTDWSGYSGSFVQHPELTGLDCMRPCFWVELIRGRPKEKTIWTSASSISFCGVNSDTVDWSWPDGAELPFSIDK

In the case of `CC(=O)N[C@H]1[C@H]([C@H](O)[C@H](O)CO)O[C@](O)(C(=O)O)C[C@@H]1O`, the IC50 is 1000 µM.

One may read the IC50 as the concentration that inhibits the measured activity by half.
